Each molecule was assayed on DU-4475 (assay: normalised viability (% of control), CellTiter-Blue; higher = more viable cells (about 100 = DMSO control)). Settings: 300 nM; incubation time: 72 h.
Experimental: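 DSRT, CellTiter-Blue viability, 72 h incubation. Signal is normalised to DMSO and benzethonium chloride controls. Value is the normalised response at dose 6.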
Molecule `CC1=C(/C=C/C(C)=C/C=C/C(C)=C/C(=O)O)C(C)(C)CCC1` [Tretinoin] has a normalised viability of 91.1%.
Work on `Nc1ccccc1NC(=O)c1ccc(CNC(=O)OCc2cccnc2)cc1` [Entinostat] yielded a normalised viability of 97.9%.
`C=CC(=O)Nc1cc2c(Nc3ccc(F)c(Cl)c3)ncnc2cc1OCCCN1CCOCC1` [Canertinib] gave a normalised viability of 93.3%.
`CC[C@H](Nc1ncnc2[nH]cnc12)c1nc2cccc(F)c2c(=O)n1-c1ccccc1` [CAL-101] gave a normalised viability of 91.1%.
Molecule `CCCCC(=O)OCC(=O)[C@]1(O)Cc2c(O)c3c(c(O)c2[C@@H](O[C@H]2C[C@H](NC(=O)C(F)(F)F)[C@H](O)[C@H](C)O2)C1)C(=O)c1c(OC)cccc1C3=O` [Valrubicin] has a normalised viability of 23.4%.

What follows are molecules tested on CAL-148 in the same assay as above. Settings: 250 nM; incubation time: 72 h.
Experimental: (§1)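 DSRT, CellTiter-Blue viability, 72 h incubation. Signal is normalised to DMSO and benzethonium chloride controls. Value is the normalised response at dose 9.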
`CC(=O)Nc1cccc(-n2c(=O)n(C3CC3)c(=O)c3c(Nc4ccc(I)cc4F)n(C)c(=O)c(C)c32)c1` showed a normalised viability of 87.6%.

Same assay, conditions: 1000 nM; incubation time: 72 h
For `Cc1cnc(NC(=O)Nc2cc(Br)c(C)cc2OC[C@@H]2CNCCO2)cn1`, the normalised viability was 56.7%.

Same assay, conditions: 10000 nM; incubation time: 72 h
For `COc1cc2nccc(Oc3ccc(NC(=O)Nc4cc(C)on4)c(Cl)c3)c2cc1OC` [Tivozanib], the normalised viability was 96.8%.
Molecule `O=C(Cc1ccc(-c2ccc(OCCN3CCOCC3)cc2)cn1)NCc1ccccc1` [KX2-391] has a normalised viability of 34.2%.
`CC1=C(/C=C/C(C)=C/C=C/C(C)=C/C(=O)O)C(C)(C)CCC1` [Tretinoin] was tested, and the normalised viability was 78.3%.
In the case of `Nc1ccccc1NC(=O)c1ccc(CNC(=O)OCc2cccnc2)cc1` [Entinostat], the normalised viability is reported as 9.38%.
For `C=CC(=O)Nc1cc2c(Nc3ccc(F)c(Cl)c3)ncnc2cc1OCCCN1CCOCC1` [Canertinib], the normalised viability was 29.8%.
For `CC[C@H](Nc1ncnc2[nH]cnc12)c1nc2cccc(F)c2c(=O)n1-c1ccccc1` [CAL-101], the normalised viability was 88.1%.
For `CCCCC(=O)OCC(=O)[C@]1(O)Cc2c(O)c3c(c(O)c2[C@@H](O[C@H]2C[C@H](NC(=O)C(F)(F)F)[C@H](O)[C@H](C)O2)C1)C(=O)c1c(OC)cccc1C3=O` [Valrubicin], the normalised viability was 1.24%.

The molecules below were run on CAL-51 in the same assay as above. Settings: 250 nM; incubation time: 72 h.
Experimental: as §1
With `CC(=O)Nc1cccc(-n2c(=O)n(C3CC3)c(=O)c3c(Nc4ccc(I)cc4F)n(C)c(=O)c(C)c32)c1` the normalised viability was 60.5%.

Same assay, conditions: 1000 nM; incubation time: 72 h
Work on `Cc1cnc(NC(=O)Nc2cc(Br)c(C)cc2OC[C@@H]2CNCCO2)cn1` yielded a normalised viability of 89.3%.

Same assay, conditions: 10000 nM; incubation time: 72 h
In the case of `COc1cc2nccc(Oc3ccc(NC(=O)Nc4cc(C)on4)c(Cl)c3)c2cc1OC` [Tivozanib], the normalised viability is reported as 40.7%.
Molecule `O=C(Cc1ccc(-c2ccc(OCCN3CCOCC3)cc2)cn1)NCc1ccccc1` [KX2-391] has a normalised viability of 12.5%.
`CC1=C(/C=C/C(C)=C/C=C/C(C)=C/C(=O)O)C(C)(C)CCC1` [Tretinoin] showed a normalised viability of 98%.
`Nc1ccccc1NC(=O)c1ccc(CNC(=O)OCc2cccnc2)cc1` [Entinostat] was tested, and the normalised viability was 29.6%.
`C=CC(=O)Nc1cc2c(Nc3ccc(F)c(Cl)c3)ncnc2cc1OCCCN1CCOCC1` [Canertinib] showed a normalised viability of 4.95%.
`CC[C@H](Nc1ncnc2[nH]cnc12)c1nc2cccc(F)c2c(=O)n1-c1ccccc1` [CAL-101] was tested, and the normalised viability was 57.3%.
For `CCCCC(=O)OCC(=O)[C@]1(O)Cc2c(O)c3c(c(O)c2[C@@H](O[C@H]2C[C@H](NC(=O)C(F)(F)F)[C@H](O)[C@H](C)O2)C1)C(=O)c1c(OC)cccc1C3=O` [Valrubicin], the normalised viability was 2.32%.

Each molecule was assayed on CAL-85-1 in the same assay as above. Settings: 250 nM; incubation time: 72 h.
Experimental: as §1
`CC(=O)Nc1cccc(-n2c(=O)n(C3CC3)c(=O)c3c(Nc4ccc(I)cc4F)n(C)c(=O)c(C)c32)c1` gave a normalised viability of 31.2%.

Same assay, conditions: 1000 nM; incubation time: 72 h
`Cc1cnc(NC(=O)Nc2cc(Br)c(C)cc2OC[C@@H]2CNCCO2)cn1` was tested, and the normalised viability was 68.3%.

Same assay, conditions: 10000 nM; incubation time: 72 h
`COc1cc2nccc(Oc3ccc(NC(=O)Nc4cc(C)on4)c(Cl)c3)c2cc1OC` [Tivozanib] showed a normalised viability of 82.9%.
With `O=C(Cc1ccc(-c2ccc(OCCN3CCOCC3)cc2)cn1)NCc1ccccc1` [KX2-391] the normalised viability was 45.4%.
With `CC1=C(/C=C/C(C)=C/C=C/C(C)=C/C(=O)O)C(C)(C)CCC1` [Tretinoin] the normalised viability was 90.6%.
`Nc1ccccc1NC(=O)c1ccc(CNC(=O)OCc2cccnc2)cc1` [Entinostat] was tested, and the normalised viability was 20.7%.
In the case of `C=CC(=O)Nc1cc2c(Nc3ccc(F)c(Cl)c3)ncnc2cc1OCCCN1CCOCC1` [Canertinib], the normalised viability is reported as 2.97%.
`CC[C@H](Nc1ncnc2[nH]cnc12)c1nc2cccc(F)c2c(=O)n1-c1ccccc1` [CAL-101] was tested, and the normalised viability was 47.5%.
For `CCCCC(=O)OCC(=O)[C@]1(O)Cc2c(O)c3c(c(O)c2[C@@H](O[C@H]2C[C@H](NC(=O)C(F)(F)F)[C@H](O)[C@H](C)O2)C1)C(=O)c1c(OC)cccc1C3=O` [Valrubicin], the normalised viability was 18.6%.

These molecules were tested on DU-4475 in the same assay as above. Settings: 250 nM; incubation time: 72 h.
Experimental: as §1
`CC(=O)Nc1cccc(-n2c(=O)n(C3CC3)c(=O)c3c(Nc4ccc(I)cc4F)n(C)c(=O)c(C)c32)c1` was tested, and the normalised viability was -1.53%.

Same assay, conditions: 1000 nM; incubation time: 72 h
Work on `Cc1cnc(NC(=O)Nc2cc(Br)c(C)cc2OC[C@@H]2CNCCO2)cn1` yielded a normalised viability of 72%.

Same assay, conditions: 10000 nM; incubation time: 72 h
`COc1cc2nccc(Oc3ccc(NC(=O)Nc4cc(C)on4)c(Cl)c3)c2cc1OC` [Tivozanib] gave a normalised viability of 107%.
`O=C(Cc1ccc(-c2ccc(OCCN3CCOCC3)cc2)cn1)NCc1ccccc1` [KX2-391] was tested, and the normalised viability was 15.5%.
For `CC1=C(/C=C/C(C)=C/C=C/C(C)=C/C(=O)O)C(C)(C)CCC1` [Tretinoin], the normalised viability was 94.3%.
Molecule `Nc1ccccc1NC(=O)c1ccc(CNC(=O)OCc2cccnc2)cc1` [Entinostat] has a normalised viability of 0.48%.
Work on `C=CC(=O)Nc1cc2c(Nc3ccc(F)c(Cl)c3)ncnc2cc1OCCCN1CCOCC1` [Canertinib] yielded a normalised viability of 6.91%.
For `CC[C@H](Nc1ncnc2[nH]cnc12)c1nc2cccc(F)c2c(=O)n1-c1ccccc1` [CAL-101], the normalised viability was -0.99%.
`CCCCC(=O)OCC(=O)[C@]1(O)Cc2c(O)c3c(c(O)c2[C@@H](O[C@H]2C[C@H](NC(=O)C(F)(F)F)[C@H](O)[C@H](C)O2)C1)C(=O)c1c(OC)cccc1C3=O` [Valrubicin] showed a normalised viability of -0.99%.

What follows are molecules tested on HDQ-P1 in the same assay as above. Settings: 250 nM; incubation time: 72 h.
Experimental: as §1
For `CC(=O)Nc1cccc(-n2c(=O)n(C3CC3)c(=O)c3c(Nc4ccc(I)cc4F)n(C)c(=O)c(C)c32)c1`, the normalised viability was 63.6%.

Same assay, conditions: 1000 nM; incubation time: 72 h
`Cc1cnc(NC(=O)Nc2cc(Br)c(C)cc2OC[C@@H]2CNCCO2)cn1` gave a normalised viability of 106%.

Same assay, conditions: 10000 nM; incubation time: 72 h
Molecule `COc1cc2nccc(Oc3ccc(NC(=O)Nc4cc(C)on4)c(Cl)c3)c2cc1OC` [Tivozanib] has a normalised viability of 55.9%.
Molecule `O=C(Cc1ccc(-c2ccc(OCCN3CCOCC3)cc2)cn1)NCc1ccccc1` [KX2-391] has a normalised viability of 47.6%.
`CC1=C(/C=C/C(C)=C/C=C/C(C)=C/C(=O)O)C(C)(C)CCC1` [Tretinoin] gave a normalised viability of 122%.
`Nc1ccccc1NC(=O)c1ccc(CNC(=O)OCc2cccnc2)cc1` [Entinostat] gave a normalised viability of 71.2%.
`C=CC(=O)Nc1cc2c(Nc3ccc(F)c(Cl)c3)ncnc2cc1OCCCN1CCOCC1` [Canertinib] gave a normalised viability of 1.8%.
Molecule `CC[C@H](Nc1ncnc2[nH]cnc12)c1nc2cccc(F)c2c(=O)n1-c1ccccc1` [CAL-101] has a normalised viability of 61.3%.
For `CCCCC(=O)OCC(=O)[C@]1(O)Cc2c(O)c3c(c(O)c2[C@@H](O[C@H]2C[C@H](NC(=O)C(F)(F)F)[C@H](O)[C@H](C)O2)C1)C(=O)c1c(OC)cccc1C3=O` [Valrubicin], the normalised viability was 52.9%.

These molecules were tested on MDA-MB-453 in the same assay as above. Settings: 250 nM; incubation time: 72 h.
Experimental: as §1
With `CC(=O)Nc1cccc(-n2c(=O)n(C3CC3)c(=O)c3c(Nc4ccc(I)cc4F)n(C)c(=O)c(C)c32)c1` the normalised viability was 50.9%.

Same assay, conditions: 1000 nM; incubation time: 72 h
`Cc1cnc(NC(=O)Nc2cc(Br)c(C)cc2OC[C@@H]2CNCCO2)cn1` was tested, and the normalised viability was 65.2%.

Same assay, conditions: 10000 nM; incubation time: 72 h
For `COc1cc2nccc(Oc3ccc(NC(=O)Nc4cc(C)on4)c(Cl)c3)c2cc1OC` [Tivozanib], the normalised viability was 28.3%.
`O=C(Cc1ccc(-c2ccc(OCCN3CCOCC3)cc2)cn1)NCc1ccccc1` [KX2-391] gave a normalised viability of 38.1%.
With `CC1=C(/C=C/C(C)=C/C=C/C(C)=C/C(=O)O)C(C)(C)CCC1` [Tretinoin] the normalised viability was 96.9%.
Work on `Nc1ccccc1NC(=O)c1ccc(CNC(=O)OCc2cccnc2)cc1` [Entinostat] yielded a normalised viability of 11.2%.
`C=CC(=O)Nc1cc2c(Nc3ccc(F)c(Cl)c3)ncnc2cc1OCCCN1CCOCC1` [Canertinib] showed a normalised viability of 10.3%.
Molecule `CC[C@H](Nc1ncnc2[nH]cnc12)c1nc2cccc(F)c2c(=O)n1-c1ccccc1` [CAL-101] has a normalised viability of 67.4%.
`CCCCC(=O)OCC(=O)[C@]1(O)Cc2c(O)c3c(c(O)c2[C@@H](O[C@H]2C[C@H](NC(=O)C(F)(F)F)[C@H](O)[C@H](C)O2)C1)C(=O)c1c(OC)cccc1C3=O` [Valrubicin] gave a normalised viability of 16.2%.

Each molecule was assayed on BT-474 (assay: normalised viability (% of control), CellTiter-Blue; higher = more viable cells (100 = DMSO, 0 = benzethonium chloride kill control)). Settings: 0.025 nM; incubation time: 72 h.
Procedure, shortened: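 Breast cancer cell lines in 20 µl suspension were seeded onto 384-well plates pre-loaded with compound dissolved in 5 µl medium, then incubated 72 h. CellTiter-Blue reagent (2.5 µl) was added for 2 h at 37 °C and fluorescence read at 560/590 nm. Each plate was normalised to vehicle (100) and a positive kill control (0), with Z'-factor quality control. The value is normalised viability at one listed concentration of the series.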
`CC(=O)Nc1cccc(-n2c(=O)n(C3CC3)c(=O)c3c(Nc4ccc(I)cc4F)n(C)c(=O)c(C)c32)c1` gave a normalised viability of 100%.

Same assay, conditions: 0.1 nM; incubation time: 72 h
`Cc1cnc(NC(=O)Nc2cc(Br)c(C)cc2OC[C@@H]2CNCCO2)cn1` showed a normalised viability of 107%.

Same assay, conditions: 1 nM; incubation time: 72 h
`COc1cc2nccc(Oc3ccc(NC(=O)Nc4cc(C)on4)c(Cl)c3)c2cc1OC` [Tivozanib] was tested, and the normalised viability was 95%.
Work on `O=C(Cc1ccc(-c2ccc(OCCN3CCOCC3)cc2)cn1)NCc1ccccc1` [KX2-391] yielded a normalised viability of 79.1%.
For `CC1=C(/C=C/C(C)=C/C=C/C(C)=C/C(=O)O)C(C)(C)CCC1` [Tretinoin], the normalised viability was 91.1%.
`Nc1ccccc1NC(=O)c1ccc(CNC(=O)OCc2cccnc2)cc1` [Entinostat] showed a normalised viability of 109%.
`C=CC(=O)Nc1cc2c(Nc3ccc(F)c(Cl)c3)ncnc2cc1OCCCN1CCOCC1` [Canertinib] gave a normalised viability of 97.5%.
In the case of `CC[C@H](Nc1ncnc2[nH]cnc12)c1nc2cccc(F)c2c(=O)n1-c1ccccc1` [CAL-101], the normalised viability is reported as 100%.
Molecule `CCCCC(=O)OCC(=O)[C@]1(O)Cc2c(O)c3c(c(O)c2[C@@H](O[C@H]2C[C@H](NC(=O)C(F)(F)F)[C@H](O)[C@H](C)O2)C1)C(=O)c1c(OC)cccc1C3=O` [Valrubicin] has a normalised viability of 92.9%.
